Measured values as given in PubChem BioAssay AID248 (DTP/NCI, 2004).
“And” between values parts separate entries of the source, which are not always exact repeats. Equal entries are not always repeated. Inconclusive results and toxic doses are left out. Rule as the data show it: active = T/C of 150% or more; inactive = T/C below 125%.

Test system: L1210 leukemia ip in BDF1 mice, survival T/C
Test: NCI In Vivo Anticancer Drug Screen. Data for tumor model L1210 Leukemia (intraperitoneal) in B6D2F1 (BDF1) mice
Details: endpoint: mean survival time, higher = longer survival
Outline: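 Ratio derived from survival: compound-dosed mice over vehicle-dosed mice, all bearing a transplantable tumor.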

[1] = dose: 100.0 mg/kg/injection, schedule: Q04DX002 (ip), vehicle: saline with Tween-80
[2] = dose: 200.0 mg/kg/injection, schedule: Q04DX002 (ip), vehicle: saline with Tween-80
[3] = dose: 400.0 mg/kg/injection, schedule: Q04DX002 (ip), vehicle: saline with Tween-80
[4] = dose: 100.0 mg/kg/injection, schedule: Q01DX009 (ip), vehicle: Klucel (hydroxypropylcellulose) (HPC)
[5] = dose: 100.0 mg/kg/injection, schedule: Q04DX003 (ip), vehicle: Klucel (hydroxypropylcellulose) (HPC)
[6] = dose: 200.0 mg/kg/injection, schedule: Q01DX009 (ip), vehicle: Klucel (hydroxypropylcellulose) (HPC)
[7] = dose: 200.0 mg/kg/injection, schedule: Q04DX003 (ip), vehicle: Klucel (hydroxypropylcellulose) (HPC)
[8] = dose: 400.0 mg/kg/injection, schedule: Q01DX009 (ip), vehicle: Klucel (hydroxypropylcellulose) (HPC)
[9] = dose: 400.0 mg/kg/injection, schedule: Q04DX003 (ip), vehicle: Klucel (hydroxypropylcellulose) (HPC)
[10] = dose: 50.0 mg/kg/injection, schedule: Q01DX001 (ip), vehicle: carboxymethylcellulose (CMC)
[11] = dose: 100.0 mg/kg/injection, schedule: Q01DX001 (ip), vehicle: carboxymethylcellulose (CMC)
[12] = dose: 100.0 mg/kg/injection, schedule: Q01DX009 (ip), vehicle: saline with Tween-80
[13] = dose: 200.0 mg/kg/injection, schedule: Q01DX001 (ip), vehicle: carboxymethylcellulose (CMC)
[14] = dose: 200.0 mg/kg/injection, schedule: Q01DX009 (ip), vehicle: saline with Tween-80
[15] = dose: 400.0 mg/kg/injection, schedule: Q01DX001 (ip), vehicle: carboxymethylcellulose (CMC)
[16] = dose: 400.0 mg/kg/injection, schedule: Q01DX009 (ip), vehicle: saline with Tween-80

Measured: T/C

c1ccc(C(=C2CCC2)c2c3ccccc3cc3ccccc23)cc1
inactive: dose: 40.0 mg/kg/injection, schedule: Q01DX009 (ip), vehicle: Klucel (hydroxypropylcellulose) (HPC) 99 % of control | dose: 75.0 mg/kg/injection, schedule: Q01DX001 (ip), vehicle: Klucel (hydroxypropylcellulose) (HPC) 93 % of control | dose: 75.0 mg/kg/injection, schedule: Q01DX009 (ip), vehicle: Klucel (hydroxypropylcellulose) (HPC) 107 % of control | dose: 150.0 mg/kg/injection, schedule: Q01DX001 (ip), vehicle: Klucel (hydroxypropylcellulose) (HPC) 90 % of control | dose: 150.0 mg/kg/injection, schedule: Q01DX009 (ip), vehicle: Klucel (hydroxypropylcellulose) (HPC) 99 % of control

COc1cc2c(c(Cl)c1N)-c1ccccc1C2
inactive: dose: 177.0 mg/kg/injection, schedule: Q01DX001 (ip), vehicle: carboxymethylcellulose (CMC) 104 % of control | dose: 266.0 mg/kg/injection, schedule: Q01DX001 (ip), vehicle: carboxymethylcellulose (CMC) 98 % of control

COC(=O)N1C=CC2C=CC1C(C#N)(C#N)C2(C#N)C#N (centres undefined)
inactive: dose: 12.5 mg/kg/injection, schedule: Q04DX002 (ip), vehicle: Klucel (hydroxypropylcellulose) (HPC) 98 % of control | dose: 25.0 mg/kg/injection, schedule: Q04DX002 (ip), vehicle: Klucel (hydroxypropylcellulose) (HPC) 98 % of control | dose: 50.0 mg/kg/injection, schedule: Q04DX002 (ip), vehicle: Klucel (hydroxypropylcellulose) (HPC) 110 % of control

CC[N+](C)(CC)CCCOC(=O)C(c1ccccc1)c1ccccc1
inactive: dose: 6.25 mg/kg/injection, schedule: Q04DX003 (ip), vehicle: saline 94 % of control | dose: 12.5 mg/kg/injection, schedule: Q04DX003 (ip), vehicle: saline 96 % of control | dose: 25.0 mg/kg/injection, schedule: Q04DX003 (ip), vehicle: saline 96 % of control

CC(C)CN(CC(C)C)/N=C/c1cc([N+](=O)[O-])ccc1O
inactive: [1] 97 % of control | [2] 91 % of control | [3] 87 % of control

c1ccc2sc(SCSc3nc4ccccc4s3)nc2c1
inactive: dose: 50.0 mg/kg/injection, schedule: Q04DX003 (ip), vehicle: saline with Tween-80 93 % of control | dose: 100.0 mg/kg/injection, schedule: Q04DX003 (ip), vehicle: saline with Tween-80 90 % of control | dose: 200.0 mg/kg/injection, schedule: Q04DX003 (ip), vehicle: saline with Tween-80 100 % of control

O=C(CCCl)Nc1ccc(S(=O)(=O)Nc2nccs2)cc1
inactive: dose: 100.0 mg/kg/injection, schedule: Q01DX001 (ip), vehicle: other 101 % of control | dose: 200.0 mg/kg/injection, schedule: Q01DX001 (ip), vehicle: other 95 % of control | dose: 400.0 mg/kg/injection, schedule: Q01DX001 (ip), vehicle: other 97 % of control

CC1(C)CC(=O)c2c(cc(O)c3ccc(=O)oc23)O1
inactive: [4] 96 % of control | [5] 100 % of control | [6] 98 % of control | [7] 104 % of control | [8] 91 % of control | [9] 96 % of control

CCN(CC)CCCC(C)Nc1cccc2c1C(=O)c1cccc(NC(C)CCCN(CC)CC)c1C2=O (centres undefined)
inactive: dose: 12.5 mg/kg/injection, schedule: Q01DX009 (ip), vehicle: saline 107 % of control | dose: 25.0 mg/kg/injection, schedule: Q01DX009 (ip), vehicle: saline 96 % of control and 118 % of control | dose: 25.0 mg/kg/injection, schedule: Q04DX002 (ip), vehicle: saline 98 % of control and 95 % of control | dose: 50.0 mg/kg/injection, schedule: Q04DX002 (ip), vehicle: saline 92 % of control and 98 % of control | dose: 100.0 mg/kg/injection, schedule: Q04DX002 (ip), vehicle: saline 102 % of control and 92 % of control

CC(=O)c1cc(CN(CCCl)CCCl)c(O)c(CN(CCCl)CCCl)c1O
inactive: dose: 3.1 mg/kg/injection, schedule: Q01DX009 (ip), vehicle: Klucel (hydroxypropylcellulose) (HPC) 111 % of control | dose: 5.5 mg/kg/injection, schedule: Q01DX009 (ip), vehicle: Klucel (hydroxypropylcellulose) (HPC) 114 % of control | dose: 6.2 mg/kg/injection, schedule: Q01DX009 (ip), vehicle: Klucel (hydroxypropylcellulose) (HPC) 111 % of control | dose: 8.3 mg/kg/injection, schedule: Q01DX009 (ip), vehicle: Klucel (hydroxypropylcellulose) (HPC) 120 % of control | dose: 15.0 mg/kg/injection, schedule: Q01DX001 (ip), vehicle: carboxymethylcellulose (CMC) 122 % of control | dose: 23.0 mg/kg/injection, schedule: Q01DX001 (ip), vehicle: carboxymethylcellulose (CMC) 122 % of control | dose: 30.0 mg/kg/injection, schedule: Q01DX009 (ip), vehicle: carboxymethylcellulose (CMC) 108 % of control | dose: 53.0 mg/kg/injection, schedule: Q01DX001 (ip), vehicle: carboxymethylcellulose (CMC) 122 % of control

CN(CC(=O)O)C(=O)c1ccccc1
inactive: dose: 75.0 mg/kg/injection, schedule: Q01DX001 (ip), vehicle: saline 96 % of control | dose: 150.0 mg/kg/injection, schedule: Q01DX001 (ip), vehicle: saline 96 % of control

CC(=O)Nc1ccc2c(c1)Cc1cc(NC=O)ccc1-2
inactive: [10] 101 % of control | [11] 95 % of control | [12] 102 % of control | dose: 100.0 mg/kg/injection, schedule: Q04DX003 (ip), vehicle: saline 97 % of control | [13] 101 % of control | [14] 95 % of control | dose: 200.0 mg/kg/injection, schedule: Q04DX003 (ip), vehicle: saline 93 % of control | [15] 101 % of control | [16] 98 % of control | dose: 400.0 mg/kg/injection, schedule: Q04DX003 (ip), vehicle: saline 95 % of control

Cc1cc(C)c(NC(=O)NCCCl)cc1C
inactive: [5] 104 % of control | [7] 89 % of control | [9] 93 % of control

C[N+](C)=C(Cl)Cl
inactive: dose: 100.0 mg/kg/injection, schedule: Q01DX001 (ip), vehicle: saline 97 % of control | dose: 200.0 mg/kg/injection, schedule: Q01DX001 (ip), vehicle: saline 97 % of control | dose: 400.0 mg/kg/injection, schedule: Q01DX001 (ip), vehicle: saline 95 % of control

CC1=C2CC(C)(C)/C=C\C(=O)/C(C)=C\C3=C[C@H](C)C[C@]3(O2)C1=O
inactive: dose: 11.0 mg/kg/injection, schedule: Q01DX009 (ip), vehicle: saline 112 % of control | dose: 16.0 mg/kg/injection, schedule: Q01DX009 (ip), vehicle: saline 106 % of control | dose: 24.0 mg/kg/injection, schedule: Q01DX009 (ip), vehicle: saline 116 % of control

Cc1ccc(NC(=O)Oc2ccc(Nc3ccccc3)cc2)cc1
inactive: [4] 103 % of control | dose: 100.0 mg/kg/injection, schedule: Q04DX002 (ip), vehicle: Klucel (hydroxypropylcellulose) (HPC) 98 % of control | [6] 95 % of control | dose: 200.0 mg/kg/injection, schedule: Q04DX002 (ip), vehicle: Klucel (hydroxypropylcellulose) (HPC) 95 % of control | [8] 98 % of control | dose: 400.0 mg/kg/injection, schedule: Q04DX002 (ip), vehicle: Klucel (hydroxypropylcellulose) (HPC) 91 % of control

CCCCCC#CC(=O)OCCCC
inactive: [1] 102 % of control | [2] 94 % of control | [3] 108 % of control

COc1ccc(OC)c(CCO)c1
inactive: [10] 93 % of control | [11] 98 % of control | [13] 91 % of control | [15] 93 % of control

Brc1ccc([Si](c2ccccc2)(c2ccccc2)c2ccc(Br)cc2)cc1
inactive: [12] 101 % of control | [14] 93 % of control | [16] 89 % of control

Cc1nc2ccc(N(C)C)cc2c2c1Cc1c(C)nc3ccc(N(C)C)cc3c1O2
inactive: [12] 95 % of control | [14] 92 % of control | [16] 110 % of control

O=C(Nc1ccc(F)cc1)c1ccccc1Cl
inactive: dose: 100.0 mg/kg/injection, schedule: Q01DX009 (ip), vehicle: acetone 98 % of control | dose: 200.0 mg/kg/injection, schedule: Q01DX009 (ip), vehicle: acetone 102 % of control | dose: 400.0 mg/kg/injection, schedule: Q01DX009 (ip), vehicle: acetone 102 % of control
